{"source": "the supplement of paper PMC10307832"}
{"compound": "COc1cc(Nc2ncc(F)c(Nc3ccc4c(n3)NC(=O)C(C)(C)O4)n2)cc(OC)c1OC [R406] + CC(C)C[C@H](NC(=O)[C@H](Cc1ccccc1)NC(=O)c1cnccn1)B(O)O [Bortezomib] (partner 0.002 µM)", "experiment": "relative viability (nuclei count vs DMSO), 5 days (fraction); higher = more cells survive", "conditions": "first compound 8 µM", "outline": "(§1)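 The day after seeding in 1536-well plates, lung cancer cell lines were treated by pin tool with a single drug, or with a fixed anchor-drug dose together with five library-drug doses (not always all listed) in √10 steps. After 5 days, a combined fix-and-stain solution (final 0.05% Triton X-100, 1% formaldehyde, 1 ug/ml Hoechst) was added. Nuclei counted on 4× images gave relative viability as treated counts over vehicle counts, reported as the median of duplicate plates.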"}
{"cell line": "HCC-827", "relative viability": 1.02}
{"cell line": "LXF-289", "relative viability": 0.483}
{"cell line": "NCI-H23", "relative viability": 0.278}
{"cell line": "NCI-H650", "relative viability": 0.389}
{"cell line": "NCI-H1651", "relative viability": 0.948}
{"cell line": "EPLC-272H", "relative viability": 0.495}
{"cell line": "NCI-H1792", "relative viability": 0.861}
{"compound": "COc1cc(Nc2ncc(F)c(Nc3ccc4c(n3)NC(=O)C(C)(C)O4)n2)cc(OC)c1OC [R406] + Nc1ncn([C@H]2C[C@H](O)[C@@H](CO)O2)c(=O)n1 [Decitabine] (partner 2 µM)", "experiment": "relative viability (nuclei count vs DMSO), 5 days (fraction); higher = more cells survive", "conditions": "first compound 0.08 µM", "outline": "as §1"}
{"cell line": "NCI-H460", "relative viability": 0.426}
{"cell line": "NCI-H727", "relative viability": 0.919}
{"cell line": "NCI-H1734", "relative viability": 0.521}
{"cell line": "NCI-H520", "relative viability": 0.455}
{"cell line": "NCI-H2347", "relative viability": 0.666}
{"cell line": "SW 1573", "relative viability": 0.398}
{"cell line": "201T", "relative viability": 0.838}
{"cell line": "NCI-H1915", "relative viability": 0.258}
{"cell line": "HCC-827", "relative viability": 0.323}
{"cell line": "LXF-289", "relative viability": 0.386}
{"cell line": "NCI-H23", "relative viability": 0.258}
{"cell line": "NCI-H650", "relative viability": 0.316}
{"cell line": "NCI-H1651", "relative viability": 0.498}
{"cell line": "EPLC-272H", "relative viability": 0.354}
{"cell line": "NCI-H1792", "relative viability": 0.558}
{"compound": "COc1cc(Nc2ncc(F)c(Nc3ccc4c(n3)NC(=O)C(C)(C)O4)n2)cc(OC)c1OC [R406] + Nc1ncn([C@H]2C[C@H](O)[C@@H](CO)O2)c(=O)n1 [Decitabine] (partner 2 µM)", "experiment": "relative viability (nuclei count vs DMSO), 5 days (fraction); higher = more cells survive", "conditions": "first compound 0.253 µM", "outline": "as §1"}
{"cell line": "NCI-H460", "relative viability": 0.596}
{"cell line": "NCI-H727", "relative viability": 1.16}
{"cell line": "NCI-H1734", "relative viability": 0.524}
{"cell line": "NCI-H520", "relative viability": 0.684}
{"cell line": "NCI-H2347", "relative viability": 0.645}
{"cell line": "SW 1573", "relative viability": 0.579}
{"cell line": "201T", "relative viability": 0.847}
{"cell line": "NCI-H1915", "relative viability": 0.298}
{"cell line": "HCC-827", "relative viability": 0.412}
{"cell line": "LXF-289", "relative viability": 0.372}
{"cell line": "NCI-H23", "relative viability": 0.307}
{"cell line": "NCI-H650", "relative viability": 0.34}
{"cell line": "NCI-H1651", "relative viability": 0.75}
{"cell line": "EPLC-272H", "relative viability": 0.391}
{"cell line": "NCI-H1792", "relative viability": 0.727}
{"compound": "COc1cc(Nc2ncc(F)c(Nc3ccc4c(n3)NC(=O)C(C)(C)O4)n2)cc(OC)c1OC [R406] + Nc1ncn([C@H]2C[C@H](O)[C@@H](CO)O2)c(=O)n1 [Decitabine] (partner 2 µM)", "experiment": "relative viability (nuclei count vs DMSO), 5 days (fraction); higher = more cells survive", "conditions": "first compound 0.8 µM", "outline": "as §1"}
{"cell line": "NCI-H460", "relative viability": 0.758}
{"cell line": "NCI-H727", "relative viability": 0.854}
{"cell line": "NCI-H1734", "relative viability": 0.551}
{"cell line": "NCI-H520", "relative viability": 0.53}
{"cell line": "NCI-H2347", "relative viability": 0.594}
{"cell line": "SW 1573", "relative viability": 0.604}
{"cell line": "201T", "relative viability": 0.861}
{"cell line": "NCI-H1915", "relative viability": 0.265}
{"cell line": "HCC-827", "relative viability": 0.401}
{"cell line": "LXF-289", "relative viability": 0.406}
{"cell line": "NCI-H23", "relative viability": 0.314}
{"cell line": "NCI-H650", "relative viability": 0.34}
{"cell line": "NCI-H1651", "relative viability": 0.654}
{"cell line": "EPLC-272H", "relative viability": 0.436}
{"cell line": "NCI-H1792", "relative viability": 0.59}
{"compound": "COc1cc(Nc2ncc(F)c(Nc3ccc4c(n3)NC(=O)C(C)(C)O4)n2)cc(OC)c1OC [R406] + Nc1ncn([C@H]2C[C@H](O)[C@@H](CO)O2)c(=O)n1 [Decitabine] (partner 2 µM)", "experiment": "relative viability (nuclei count vs DMSO), 5 days (fraction); higher = more cells survive", "conditions": "first compound 2.53 µM", "outline": "as §1"}
{"cell line": "NCI-H460", "relative viability": 0.0438}
{"cell line": "NCI-H727", "relative viability": 0.872}
{"cell line": "NCI-H1734", "relative viability": 0.404}
{"cell line": "NCI-H520", "relative viability": 0.302}
{"cell line": "NCI-H2347", "relative viability": 0.631}
{"cell line": "SW 1573", "relative viability": 0.186}
{"cell line": "201T", "relative viability": 0.839}
{"cell line": "NCI-H1915", "relative viability": 0.293}
{"cell line": "HCC-827", "relative viability": 0.219}
{"cell line": "LXF-289", "relative viability": 0.405}
{"cell line": "NCI-H23", "relative viability": 0.308}
{"cell line": "NCI-H650", "relative viability": 0.297}
{"cell line": "NCI-H1651", "relative viability": 0.531}
{"cell line": "EPLC-272H", "relative viability": 0.26}
{"cell line": "NCI-H1792", "relative viability": 0.515}
{"compound": "COc1cc(Nc2ncc(F)c(Nc3ccc4c(n3)NC(=O)C(C)(C)O4)n2)cc(OC)c1OC [R406] + Nc1ncn([C@H]2C[C@H](O)[C@@H](CO)O2)c(=O)n1 [Decitabine] (partner 2 µM)", "experiment": "relative viability (nuclei count vs DMSO), 5 days (fraction); higher = more cells survive", "conditions": "first compound 8 µM", "outline": "as §1"}
{"cell line": "NCI-H460", "relative viability": 0.354}
{"cell line": "NCI-H727", "relative viability": 0.847}
{"cell line": "NCI-H1734", "relative viability": 0.399}
{"cell line": "NCI-H520", "relative viability": 0.158}
{"cell line": "NCI-H2347", "relative viability": 0.562}
{"cell line": "SW 1573", "relative viability": 0.172}
{"cell line": "201T", "relative viability": 0.586}
{"cell line": "NCI-H1915", "relative viability": 0.278}
{"cell line": "HCC-827", "relative viability": 0.268}
{"cell line": "LXF-289", "relative viability": 0.396}
{"cell line": "NCI-H23", "relative viability": 0.177}
{"cell line": "NCI-H650", "relative viability": 0.354}
{"cell line": "NCI-H1651", "relative viability": 0.6}
{"cell line": "EPLC-272H", "relative viability": 0.21}
{"cell line": "NCI-H1792", "relative viability": 0.352}
{"compound": "O=C(/C=C/c1cccnc1)NCCCCC1CCN(C(=O)c2ccccc2)CC1 [Daporinad] + C[C@@H](Oc1cc(-c2cnn(C3CCNCC3)c2)cnc1N)c1c(Cl)ccc(F)c1Cl [Crizotinib] (partner 1 µM)", "experiment": "relative viability (nuclei count vs DMSO), 5 days (fraction); higher = more cells survive", "conditions": "first compound 0.0005 µM", "outline": "as §1"}
{"cell line": "NCI-H460", "relative viability": 1.02}
{"cell line": "NCI-H727", "relative viability": 0.713}
{"cell line": "NCI-H1734", "relative viability": 0.713}
{"cell line": "NCI-H520", "relative viability": 0.789}
{"cell line": "NCI-H2347", "relative viability": 0.841}
{"cell line": "SW 1573", "relative viability": 0.834}
{"cell line": "201T", "relative viability": 0.954}
{"cell line": "NCI-H1915", "relative viability": 0.911}
{"cell line": "HCC-827", "relative viability": 0.963}
{"cell line": "LXF-289", "relative viability": 0.784}
{"cell line": "NCI-H23", "relative viability": 0.744}
{"cell line": "NCI-H650", "relative viability": 0.736}
{"cell line": "NCI-H1651", "relative viability": 0.881}
{"cell line": "EPLC-272H", "relative viability": 0.884}
{"cell line": "NCI-H1792", "relative viability": 0.916}
{"compound": "O=C(/C=C/c1cccnc1)NCCCCC1CCN(C(=O)c2ccccc2)CC1 [Daporinad] + C[C@@H](Oc1cc(-c2cnn(C3CCNCC3)c2)cnc1N)c1c(Cl)ccc(F)c1Cl [Crizotinib] (partner 1 µM)", "experiment": "relative viability (nuclei count vs DMSO), 5 days (fraction); higher = more cells survive", "conditions": "first compound 0.001581 µM", "outline": "as §1"}
{"cell line": "NCI-H460", "relative viability": 0.91}
{"cell line": "NCI-H727", "relative viability": 0.786}
{"cell line": "NCI-H1734", "relative viability": 0.715}
{"cell line": "NCI-H520", "relative viability": 0.726}
{"cell line": "NCI-H2347", "relative viability": 0.892}
{"cell line": "SW 1573", "relative viability": 0.831}
{"cell line": "201T", "relative viability": 1.05}
{"cell line": "NCI-H1915", "relative viability": 0.933}
{"cell line": "HCC-827", "relative viability": 1.01}
{"cell line": "LXF-289", "relative viability": 0.899}
{"cell line": "NCI-H23", "relative viability": 0.667}
{"cell line": "NCI-H650", "relative viability": 0.749}
{"cell line": "NCI-H1651", "relative viability": 0.875}
{"cell line": "EPLC-272H", "relative viability": 1.03}
{"cell line": "NCI-H1792", "relative viability": 1.01}
{"compound": "O=C(/C=C/c1cccnc1)NCCCCC1CCN(C(=O)c2ccccc2)CC1 [Daporinad] + C[C@@H](Oc1cc(-c2cnn(C3CCNCC3)c2)cnc1N)c1c(Cl)ccc(F)c1Cl [Crizotinib] (partner 1 µM)", "experiment": "relative viability (nuclei count vs DMSO), 5 days (fraction); higher = more cells survive", "conditions": "first compound 0.005 µM", "outline": "as §1"}
{"cell line": "NCI-H460", "relative viability": 1.17}
{"cell line": "NCI-H727", "relative viability": 0.938}
{"cell line": "NCI-H1734", "relative viability": 0.737}
{"cell line": "NCI-H520", "relative viability": 0.258}
{"cell line": "NCI-H2347", "relative viability": 0.826}
{"cell line": "SW 1573", "relative viability": 0.728}
{"cell line": "201T", "relative viability": 1.04}
{"cell line": "NCI-H1915", "relative viability": 0.982}
{"cell line": "HCC-827", "relative viability": 0.936}
{"cell line": "LXF-289", "relative viability": 0.848}
{"cell line": "NCI-H23", "relative viability": 0.678}
{"cell line": "NCI-H650", "relative viability": 0.75}
{"cell line": "NCI-H1651", "relative viability": 0.825}
{"cell line": "EPLC-272H", "relative viability": 1.01}
{"cell line": "NCI-H1792", "relative viability": 0.844}
{"compound": "O=C(/C=C/c1cccnc1)NCCCCC1CCN(C(=O)c2ccccc2)CC1 [Daporinad] + C[C@@H](Oc1cc(-c2cnn(C3CCNCC3)c2)cnc1N)c1c(Cl)ccc(F)c1Cl [Crizotinib] (partner 1 µM)", "experiment": "relative viability (nuclei count vs DMSO), 5 days (fraction); higher = more cells survive", "conditions": "first compound 0.01581 µM", "outline": "as §1"}
{"cell line": "NCI-H460", "relative viability": 0.897}
{"cell line": "NCI-H727", "relative viability": 0.698}
{"cell line": "NCI-H1734", "relative viability": 0.464}
{"cell line": "NCI-H520", "relative viability": 0.114}
{"cell line": "NCI-H2347", "relative viability": 0.775}
{"cell line": "SW 1573", "relative viability": 0.479}
{"cell line": "201T", "relative viability": 1.03}
{"cell line": "NCI-H1915", "relative viability": 0.915}
{"cell line": "HCC-827", "relative viability": 0.931}
{"cell line": "LXF-289", "relative viability": 0.854}
{"cell line": "NCI-H23", "relative viability": 0.398}
{"cell line": "NCI-H650", "relative viability": 0.798}
{"cell line": "NCI-H1651", "relative viability": 0.807}
{"cell line": "EPLC-272H", "relative viability": 1.11}
{"cell line": "NCI-H1792", "relative viability": 0.976}
